Experimental data as given in patent publication US20250120957A1, “TREATMENT OF NEUROPSYCHIATRIC DISORDERS WITH TILIVAPRAM” (Alto Neuroscience, Inc., priority 2023, published 2025).

Columns and labels:
Type in all cases: in vivo, human
[1] = system: healthy patients aged 40 to 65 years old; test: Phase 1 three-way crossover study: resting 19 channel EEG and cognitive task ERPs; conditions: vs placebo
Description: (§1) A phase 1 three-way, crossover study was performed as shown in FIG. 1 on healthy patients aged 40 to 65 years old to determine dose and pharmacodynamic outcomes. Patients in the fasted state were orally administered 0.5 or 1.5 mg tilivapram or placebo in the form of an immediate release suspension. Outcomes were measured with a computerized neurocognitive test battery, resting 19 channel EEG, and cognitive task ERPs (event-related potentials). 44 patients were dosed (and used for AE analyses), of which 40 received all three doses (and used for analysis of cognitive, EEG and ERP outcomes).
Theta (4-8 Hz) is an EEG rhythm involving connections between the hippocampus and prefrontal cortex. Frontal midline resting theta power is elevated across a range of cognitive disorders, such as schizophrenia, ADHD, Parkinson's disease, Alzheimer's disease and mild cognitive impairment (MCI) (see Newson et al., Front Hum Neurosci., 2019, 12:521 (PMID 30687041)). Increased theta power correlates with poorer cognitive task performance. […] Tilivapram has a wide therapeutic window as there were significant decreases in theta power at both the 0.5 mg and 1.5 mg doses.
Stimulus-induced theta response, such as measured by inter-trial coherence, phase locking factor or event-related spectral perturbation, reflect the brain response during stimulus processing, is reduced in patients with schizophrenia, and the degree of reduction is correlated with the degree of cognitive impairment in these patients (Lee at al., Mol Psychiatry, 2017, 22 (11): 1585-1593, PMID 28167837; Martínez et al., Front Hum Neurosci., 2015, 9:371, PMID 26190988; Xiong et al.,Front Hum Neurosci., 2019, 13:37, PMID 30894804; Hua et al., Biol Psychiatry Cogn Neurosci Neuroimaging., 2023, 8 (12): 1186-1196, PMID: 36931469; Hochberger et al., Int. J. Psychophysiology, 2019, 145:23-29, PMID: 30586570; Wolff et al., Cerebral Cortex, 2022, 32:3441-3456: PMID: 34875019).
Evoked sensory gamma-based responses represent both basic sensory processing as well as higher cognitive functions, such as attention and memory. The onset of a stimulus triggers precisely timed local processing, evident as an increase in gamma-band intertrial phase locking. Gamma-band phase locking at ˜50 ms after stimulus onset is reduced in schizophrenia and other psychotic spectrum disorders such as bipolar disorder (see Roach et al., Schizophr Bull., 34 (5): 907-26, 2008 (PMID 18684772); Javitt et al., Neuropsychopharmacology, 45 (9): 1411-1422, 2020 (PMID 32375159)). […]

[2] = system: healthy patients aged 40 to 65 years old; test: Phase 1 three-way crossover study: adverse events
Description: as §1
The adverse events were primarily nausea, as expected given the well-known dose-limiting effects of PDE4 inhibitors on nausea. Approximately 28% of people experienced nausea at the 1.5 mg dose, while only 2% did so at the 0.5 mg dose. […] Only one patient discontinued treatment due to an adverse event at the higher dose (1.5 mg) of tilivapram.

participants = test: Phase I open-label 2-way cross-over study of oral solution vs transdermal delivery system: related adverse events
Description: A phase I, open-label, fixed period, 2-way cross-over study was performed to establish the pharmacokinetics and safety of a transdermal delivery system containing tilivapram. In Period 1 Day 1 (P1D1), participants were dosed with 1.0 mg of tilivapram in a liquid oral solution in a fasted state. After a 7-day washout period, participants were dosed with the first set of 4 patches applied by study staff on Period 2 Day 1 (P2D1), which were then removed after 24 hours and 4 new patches applied for an additional 24 hours on Period 2 Day 2 (P2D2) for a total of 48 hours. All but one of the 15 subjects completed the study. One subject withdrew after receiving the oral solution.

[3] = system: healthy patients aged 40 to 65 years old; test: Phase 1 three-way crossover study: computerized neurocognitive test battery; conditions: for global cognition, effect size d relative to placebo / memory, effect size d relative to placebo: 0.5 mg oral
Description: as §1
Tilivapram has a wide therapeutic window in the finger tapping task as there were significant decreases in latency at both the 0.5 mg and 1.5 mg doses.
The effect of tilivapram versus placebo on cognition was examined between subgroups of the study sample differing in their global cognitive composite score at baseline. […] However, examining only participants with baseline global cognition below healthy norms (z<−0.5), the effect of 0.5 mg tilivapram relative to placebo increased to d=0.861, p=0.034. […] Examining participants with global cognition of z<−0.5, the effect on memory becomes larger and statistically significant (d=0.797, p=0.048).

[4] = oral N=15, transdermal N=14, overall N=15
[5] = 0.5 and 1.5 mg oral, vs placebo

COc1cnc(C(=O)Nc2c(Cl)c[n+]([O-])cc2Cl)cc1OCC1CC1 [tilivapram, 4-(cyclopropylmethoxy)-N-(3,5-dichloro-1-oxidopyridin-4-yl)-5-methoxypyridine-2-carboxamide]
theta intertrial coherence at the Cz electrode ([1]; 0.5 mg and 1.5 mg oral, auditory stimulus): increased theta intertrial coherence
theta relative power at the Fz electrode (resting EEG) ([1]; 0.5 and 1.5 mg oral immediate release suspension, fasted): decreased theta relative power
gamma-band phase locking approximately 50 ms after onset of a tone auditory stimulus ([1]; 0.5 and 1.5 mg oral, Pz electrode): increased gamma-band phase locking
mismatch negativity (MMN) at the Fz electrode ([1]; 0.5 and 1.5 mg oral, oddball task): increased MMN
people experiencing nausea ([2]; 0.5 mg oral dose): 2%
dizziness and lightheadedness ([2]; 0.5 mg to 1.5 mg oral): substantially increased in a dose-related manner
patients who discontinued treatment due to an adverse event ([2]; 1.5 mg oral dose): one
people experiencing nausea ([2]; 1.5 mg oral dose): Approximately 28%
adverse events ([2]; from the 0.5 mg dose to the 1.5 mg dose, oral): increased substantially
Number of participants with at least 1 TEAE (participants; oral 1.0 mg fasted N=15, 4 patches x 2 days N=14, overall N=15): 11 (73.3) n (%)
Abdominal pain (participants; [4]): 0 n (%)
Administration site erythema (participants; [4]): 0 n (%)
Administration site pain (participants; [4]): 0 n (%)
Administration site pruritus (participants; [4]): 2 (13.3) n (%)
Arthralgia (participants; [4]): 0 n (%)
Asthenia (participants; [4]): 1 (6.7) n (%)
Dermatitis acneiform (participants; [4]): 0 n (%)
Diarrhea (participants; [4]): 1 (6.7) n (%)
Dizziness (participants; [4]): 6 (40.0) n (%)
Dyspepsia (participants; [4]): 1 (6.7) n (%)
Ear and labyrinth disorders (participants; [4]): 1 (6.7) n (%)
Fatigue (participants; [4]): 0 n (%)
Gastrointestinal disorders (participants; [4]): 3 (20.0) n (%)
General disorders and administration site conditions (participants; [4]): 2 (13.3) n (%)
Headache (participants; [4]): 6 (40.0) n (%)
Insomnia (participants; [4]): 0 n (%)
Irritability (participants; [4]): 0 n (%)
Musculoskeletal and connective tissue disorders (participants; [4]): 0 n (%)
Nausea (participants; [4]): 3 (20.0) n (%)
Nervous system disorders (participants; [4]): 8 (53.3) n (%)
Neuralgia (participants; [4]): 0 n (%)
Number of TEAEs (participants; [4]): 28
Psychiatric disorders (participants; [4]): 0 n (%)
Skin and subcutaneous tissue disorders (participants; [4]): 0 n (%)
Vertigo (participants; [4]): 1 (6.7) n (%)
global cognition, effect size d relative to placebo ([3]; full sample, p=0.223): 0.274
memory, effect size d relative to placebo ([3]; full sample, p=0.359): 0.207
global cognition, effect size d relative to placebo ([3]; participants with baseline global cognition z<−0.5, p=0.034): 0.861
memory, effect size d relative to placebo ([3]; participants with global cognition z<−0.5, p=0.048): 0.797
processing speed (composite z-score of simple reaction time, choice reaction time and Eriksen flanker tasks) [3, 5]: improved processing speed
psychomotor speed (latency in a finger tapping task) [3, 5]: improved psychomotor speed
